Test results taken from patent US20080226624A1, “Combined treatment of cancer by urokinase inhibition and a cytostatic anti-cancer agent for enhancing the anti-metastatic effect” (priority 2007, published 2008).

Key:
BN472 rat mammary tumors = system: BN472 rat mammary tumors
Description: Small tumor cubes (2×2×2 mm) were prepared from a tumor grown in a donor rat and implanted orthotopically under the fat pad of the mammary gland.
The effects of treatments on body weight and tumor load were evaluated twice weekly. The final evaluation was done at the end of the therapy period after all rats had been sacrificed. Graphical evaluations of the endpoints considered, i.e., tumor size and weight, axillary lymph-node weights, the number of macroscopic lung foci, and the weights of the thymus, uterus, spleen and liver, are depicted in FIGS. 3, 3a, 3b, 3c, 3d and 3e.

plasmin = plasmin (Homo sapiens, UniProt P00747); conditions: L-confirmation; cited from earlier work
uPA = uPA (Homo sapiens, UniProt P00749); conditions: L-confirmation; cited from earlier work
tumor cell invasion = conditions: cited from earlier work
[1] = irinotecan mono-therapy, both doses (2 and 6 mg/kg daily i.p.)

plasmin, sequence (P00747 581-810 limits assumed, species assumed): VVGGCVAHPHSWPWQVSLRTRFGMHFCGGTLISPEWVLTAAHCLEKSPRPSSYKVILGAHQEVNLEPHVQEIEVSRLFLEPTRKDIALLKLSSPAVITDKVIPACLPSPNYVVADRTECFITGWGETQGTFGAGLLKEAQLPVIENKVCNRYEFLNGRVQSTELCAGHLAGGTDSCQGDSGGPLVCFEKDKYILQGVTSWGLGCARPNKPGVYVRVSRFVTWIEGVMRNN
plasmin, sequence (P00747 97-580 partner limits assumed, species assumed): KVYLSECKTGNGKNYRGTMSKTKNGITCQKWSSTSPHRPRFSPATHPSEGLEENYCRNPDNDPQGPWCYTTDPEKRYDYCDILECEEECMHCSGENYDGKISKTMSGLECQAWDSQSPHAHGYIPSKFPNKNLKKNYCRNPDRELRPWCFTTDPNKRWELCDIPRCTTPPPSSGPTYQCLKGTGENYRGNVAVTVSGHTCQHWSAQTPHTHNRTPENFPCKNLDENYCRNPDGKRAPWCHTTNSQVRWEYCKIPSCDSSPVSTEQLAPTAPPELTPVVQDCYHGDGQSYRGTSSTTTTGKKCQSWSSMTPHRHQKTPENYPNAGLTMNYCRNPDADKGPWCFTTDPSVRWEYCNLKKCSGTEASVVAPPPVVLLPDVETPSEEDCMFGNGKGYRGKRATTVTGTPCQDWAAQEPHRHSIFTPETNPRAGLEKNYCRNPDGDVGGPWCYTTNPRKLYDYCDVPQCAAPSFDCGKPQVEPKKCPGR

Row | SMILES | tolerability (daily observations during the treatment period) (BN472 rat mammary tumors; WX-671 0.3 mg/kg daily p.o., irinotecan 2 or 6 mg/kg daily i.p.) | axillary lymph-nodes weight (BN472 rat mammary tumors; [1]) | number of lung foci (BN472 rat mammary tumors; [1]) | tumor growth (BN472 rat mammary tumors; irinotecan mono-therapy, daily i.p.) | Ki values, inhibition of plasmin (plasmin) | Ki values, inhibition of uPA (uPA) | tumor cell invasion in vitro (tumor cell invasion)
1 | CCc1c2c(nc3ccc(OC(=O)N4CCC(N5CCCCC5)CC4)cc13)-c1cc3c(c(=O)n1C2)COC(=O)[C@]3(O)CC [irinotecan] | generally well tolerated | significantly inhibited | significantly inhibited | inhibition of tumor growth |  |  | 
2 | CCOC(=O)N1CCN(C(=O)[C@H](Cc2cccc(C(=N)N)c2)NS(=O)(=O)c2c(C(C)C)cc(C(C)C)cc2C(C)C)CC1 [WX-UK1, N[alpha]-(2,4,6-triisopropylphenylsulfonyl)-3-amidino-(L)-phenylalanine 4-ethoxycarbonylpiperazide] |  |  |  |  | low- or sub-micromoles range | low- or sub-micromoles range | suppress tumor cell invasion in vitro
